This note sets out measurements from patent publication US20100311770A1, “COMPOUND COMBINATIONS FOR INHIBITING CELL DIVISION AND METHODS FOR THEIR IDENTIFICATION AND USE” (President and Fellows of Harvard College, priority 2005, published 2010).

≈ marks a conversion by molar mass, not a printed value. Entries after “also recorded” stand apart in the source; their conditions may differ.

The subject of experiment [1] is E. coli DRC39 (ΔacrAB::kan). Type of experiment: cell-based. The settings on record: for MIC: E. coli DRC39 (ΔacrAB::kan), MIC99.
The next experiment relates to E. coli strain DRC39. The experiment can be described thus: combination anti-bacterial treatment at sub-MIC concentrations, cell growth by turbidity or OD600. The settings on record: for amount of growth relative to absence of compound / growth inhibition: single compound. Type of experiment: cell-based. How it is done: Cell growth was assessed by visual inspection of cells incubated in culture tubes in this experiment and in the second, third, and fourth experiments described in this Example. In the fifth experiment growth was measured by reading optical density (OD600) using a multiwell plate reader. Cells were inoculated at a low concentration (1-2×10^5 cells/ml), such that the medium appeared clear.

Experiment [2] addresses E. coli FtsZ (FtsZEc) GTPase (Escherichia coli, UniProt P0A9A6). The settings on record: read-out: IC50 FtsZEc GTPase; 5 min preincubation at 30° C., 1 mM GTP; average of three determinations. How it is done:
FtsZ was preincubated with varying concentrations of compounds or with 3% DMSO in buffer E for 5 min at 30° C., before adding 1 mM GTP to the reactions. Reaction kinetics were followed by measuring inorganic phosphate released upon GTP hydrolysis. The IC50 values were extrapolated from log dose-response curves and are averages from three independent determinations.

The target of experiment [3] is M. tuberculosis FtzZ (FtsZMt) GTPase (Mycobacterium tuberculosis, UniProt P9WN95). Nature of the experiment: malachite green-phosphomolybdate assay of FtsZ GTPase activity. Type of experiment: biochemical. The settings on record: 5 min preincubation at 30° C., 1 mM GTP; average of three determinations.
M. tuberculosis FtzZ (FtsZMt) GTPase, sequence (P9WN95 whole entry): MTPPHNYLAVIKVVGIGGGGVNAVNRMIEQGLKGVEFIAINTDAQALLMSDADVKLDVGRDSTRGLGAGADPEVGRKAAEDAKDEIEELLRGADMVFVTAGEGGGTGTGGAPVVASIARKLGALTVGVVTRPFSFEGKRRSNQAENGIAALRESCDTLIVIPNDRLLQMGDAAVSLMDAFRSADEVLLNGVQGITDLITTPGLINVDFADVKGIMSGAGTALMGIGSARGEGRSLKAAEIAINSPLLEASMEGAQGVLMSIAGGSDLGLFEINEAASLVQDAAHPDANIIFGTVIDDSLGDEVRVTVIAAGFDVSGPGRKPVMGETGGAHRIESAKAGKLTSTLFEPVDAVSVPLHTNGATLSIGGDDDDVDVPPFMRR
Another experiment has as its system Vibrio cholerae. The experiment can be described thus: MIC, standard broth dilution. On the technique in general: Dilution methods test growth across graded concentrations, often in twofold steps.
The test system of another experiment is Bacillus subtilis. The experiment can be described thus: MIC / killing, broth culture.
A further experiment concerns Staphylococcus aureus. Nature of the experiment: MIC, standard broth dilution.
The test system of experiment [4] is E. coli DRC40 (DRC39 ftsZ84). The experiment can be described thus: MIC / growth and phenotype, broth culture. Type of experiment: cell-based.
Experiment [5] concerns FtsZ ring assembly in E. coli DRC39 cells. Type of experiment: cell-based.
The test system of another experiment is Clostridium perfringens. Type of experiment: cell-based.
The next experiment has as its system E. coli DRC40/pBR-ftsZ+. Format: cell-based.
Experiment [6] concerns E. coli MC1000 (wild-type). Nature of the experiment: MIC, standard broth dilution. The settings on record: MIC99.
The subject of experiment [7] is E. coli DRC42 (DRC39 recA::cat). Nature of the experiment: MIC, standard broth dilution.
Experiment [8] deals with gram-negative and gram-positive bacteria. Nature of the experiment: MIC against a variety of bacteria (FIG. 19). Format: cell-based. How it is done:
FIG. 19 is a table illustrating the minimum inhibitory concentrations of FtsZ GTPase inhibitory compounds identified in vitro. The compounds were tested against a variety of gram-negative and gram-positive bacteria.
The minimum inhibitory concentrations for some of the identified compounds against various bacterial species and strains were evaluated and results are shown herein (see, e.g., FIG. 19 for MIC values of compounds identified using in vitro assays, and see Table 3 for MIC values for compound 26E-10).

The mark [9] stands for this setting: C. perfringens, 80 μM, anaerobic conditions.

E. coli FtsZ (FtsZEc) GTPase, sequence (P0A9A6 whole entry): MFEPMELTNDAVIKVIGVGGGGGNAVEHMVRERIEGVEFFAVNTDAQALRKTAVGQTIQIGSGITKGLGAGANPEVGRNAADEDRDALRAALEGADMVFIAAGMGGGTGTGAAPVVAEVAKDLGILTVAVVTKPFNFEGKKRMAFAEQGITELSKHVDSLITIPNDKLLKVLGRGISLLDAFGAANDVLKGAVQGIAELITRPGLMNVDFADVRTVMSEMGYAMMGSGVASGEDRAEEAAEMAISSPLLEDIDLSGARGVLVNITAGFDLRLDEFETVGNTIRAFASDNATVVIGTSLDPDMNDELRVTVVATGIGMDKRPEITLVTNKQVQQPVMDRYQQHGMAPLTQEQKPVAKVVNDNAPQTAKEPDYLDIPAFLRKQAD

A word on the MIC: it is the least concentration at which growth counts as inhibited. Low values mean greater potency, high ones weaker potency. With `CCN1C(=Cc2ccc3c4ccccc4ccc3[n+]2CC)C=Cc2ccccc21.Cc1ccc(S(=O)(=O)[O-])cc1` [7N-12], the MIC in experiment [1] worked out at 1.25 µM. In the experiment on E. coli strain DRC39 (0.3 μM), the “amount of growth relative to absence of compound” value worked out at 98% and the growth inhibition was 2%.

A word on the IC50: it is the concentration that inhibits the measured activity by half. `CCN(CC)CCNc1nc(C=Cc2ccc(Cl)cc2)nc2cc3ccccc3cc12` [16L-09] gave an MIC in [1] of 10 µM (≈ 4.31 µg/mL). Further, the figures for the IC50 in experiment [2] and in [3] were 15 µM and 50 µM, respectively. Further, in the experiment with E. coli strain DRC39 (in combination with 26E-10 at sub-MIC concentrations), the “reduction in MIC when administered in combination” value was determined as 4 fold.

As for `CC[n+]1ccc(/C=C/N(C)c2ccccc2)c2ccccc21.[I-]` [26E-10], the “cell morphology and density” value in experiment [1] (DRC39, 5 μM compound, 30° C.) was “mixture of filaments of varying lengths and short cells present at a low density”. In addition, the “phenotype at MIC” value in [1] (E. coli DRC39) and in experiment [4] (E. coli DRC40) was “filaments” each time. Further, the MIC in experiment [1] is 10 µM; in the experiment on Vibrio cholerae it was 40 µM; in the experiment with Bacillus subtilis (Bacillus subtilis), 40 µM; in the experiment on Staphylococcus aureus it was 20 µM; in [4] (E. coli DRC40 (ftsZ84), 30° C., MIC99), 2.5 µM; against Clostridium perfringens (Clostridium perfringens), above 80 µM. Further, the MIC was 10 µM against E. coli DRC40/pBR-ftsZ+ (DRC40 with wild-type ftsZ in trans (pBR-ftsZ+)), above 40 µM in [6] and 10 µM in [7]. Moreover, the “killing of B. subtilis” value with Bacillus subtilis is “efficiently killed”. Moreover, the growth result in [4] (DRC40/pBR322, 5 μM compound, 30° C.) is recorded as “absolutely no growth”. In addition, the “DNA replication / chromosome segregation (DAPI staining of nucleoids)” value in experiment [5] (10 μM) is listed as “does not affect DNA replication or chromosome segregation”. Also, the “Z-rings in elongated cells” value in [5] (10 μM (MIC), within 60 min) was “markedly reduced in number and diminished in intensity”. In addition, the Z-rings result in experiment [5] (10 μM, after 90 min treatment) was “most of the cells were devoid of distinct Z-rings”. Moreover, in [5] (10 μM, within 60 min of treatment), the “cell length (filamentation)” value was around 4 ×. The “effect on cell growth” value in the experiment with Clostridium perfringens (setting [9]) is “without any overt effect on cell growth”. Also, the phenotype entry in the experiment on Clostridium perfringens (setting [9]) is reported as “filamentation phenotype; also recorded: filaments”. The “cell density and filamentation” value with E. coli DRC40/pBR-ftsZ+ (DRC40/pBR-ftsZ+, 5 μM compound, versus DRC40/pBR322) is “higher cell density and less pronounced filamentation”. Also, the “amount of growth relative to absence of compound” value in the experiment with E. coli strain DRC39 (5 μM) worked out at 41%. In addition, the growth inhibition with E. coli strain DRC39 (5 μM) was 59%.

`Oc1ccc(Cl)cc1Cc1cc(Cl)cc(Cc2cc(Cl)ccc2O)c1O` [27D-12] returned a minimum inhibitory concentration (MIC) in experiment [1] of 20 µM (≈ 8.19 µg/mL). For the same compound, the results for the concentration for half-maximal inhibition (IC50) in [2] and in experiment [3] were 5 µM and 55 µM, respectively. In addition, the “activity against gram negative bacteria” value in experiment [8] is on record as “kills gram negative species”. The “activity against gram positive bacteria” value in experiment [8] is “effective against gram positive bacteria at very low concentrations”.

Consider `Nc1c(C=Cc2cc3cc(C4=NCCN4)ccc3o2)[nH]c2cc(C3=NCCN3)ccc12` [58P-18], for which the MIC in [1] is 80 µM (≈ 32.8 µg/mL). Besides, the IC50 in experiment [2] is 4 µM. This compound returned an IC50 in experiment [3] of 30 µM. For the same compound, in experiment [5] (40 μM), the Z-ring assembly entry is listed as “none of the treated cells appear to contain a medial FtsZ ring” and the “time until cells start elongating” value was at most 60 min.
